Test system: 463943-066-T-J2-PDC complex spheroid growth
Assay: Anticancer human tumor 463943-066-T-J2-PDC patient-derived colon adenocarcinoma cell line growth inhibition [Asc]
Details: for IC50: curve of first compound; for viability, T/C: stronger effect = lower value
Procedure, shortened: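 Complex spheroids combining tumor cells with HUVEC endothelial cells and human MSCs, at 37 degrees C, 5% CO2; agents tested alone or combined, half-log dilutions from at or near clinical Cmax, or 10 microM if Cmax unknown.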
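Note: compound exposure lasted 7 days.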
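Throughout, for viability, T/C: 100% = DMSO vehicle control wells.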

## C#Cc1c(F)ccc2cc(O)cc(-c3ncc4c(N5CC6CCC(C5)N6)nc(OCC56CCCN5CC(F)C6)nc4c3F)c12 (centres undefined) + CNC(C)C(=O)NC1CN(S(=O)(=O)c2cccc(S(=O)(=O)N3CCC4CCC(C(=O)NC(c5ccccc5)c5ccccc5)N4C(=O)C(NC(=O)C(C)NC)C3)c2)CCC2CCC(C(=O)NC(c3ccccc3)c3ccccc3)N2C1=O
Second compound 0.00316 µM
  IC50: > 10 µM
Second compound 0.01 µM
  IC50: > 10 µM
Second compound 0.0316 µM
  IC50: > 10 µM
Second compound 0.1 µM
  IC50: > 10 µM
Second compound 0.316 µM
  IC50: > 10 µM
Second compound 1 µM
  IC50: > 10 µM
Second compound 0.00316 µM, first compound 0.0316 µM
  viability, T/C: 105%
Second compound 0.00316 µM, first compound 0.1 µM
  viability, T/C: 103%
Second compound 0.00316 µM, first compound 0.316 µM
  viability, T/C: 94.3%
Second compound 0.00316 µM, first compound 1 µM
  viability, T/C: 123%
Second compound 0.00316 µM, first compound 3.16 µM
  viability, T/C: 94%
Second compound 0.00316 µM, first compound 10 µM
  viability, T/C: 99.5%
Second compound 0.01 µM, first compound 0.0316 µM
  viability, T/C: 101%
Second compound 0.01 µM, first compound 0.1 µM
  viability, T/C: 99.9%
Second compound 0.01 µM, first compound 0.316 µM
  viability, T/C: 97.4%
Second compound 0.01 µM, first compound 1 µM
  viability, T/C: 102%
Second compound 0.01 µM, first compound 3.16 µM
  viability, T/C: 99.3%
Second compound 0.01 µM, first compound 10 µM
  viability, T/C: 101%
Second compound 0.0316 µM, first compound 0.0316 µM
  viability, T/C: 102%
Second compound 0.0316 µM, first compound 0.1 µM
  viability, T/C: 101%
Second compound 0.0316 µM, first compound 0.316 µM
  viability, T/C: 94.3%
Second compound 0.0316 µM, first compound 1 µM
  viability, T/C: 103%
Second compound 0.0316 µM, first compound 3.16 µM
  viability, T/C: 100%
Second compound 0.0316 µM, first compound 10 µM
  viability, T/C: 91.3%
Second compound 0.1 µM, first compound 0.0316 µM
  viability, T/C: 109%
Second compound 0.1 µM, first compound 0.1 µM
  viability, T/C: 92%
Second compound 0.1 µM, first compound 0.316 µM
  viability, T/C: 98%
Second compound 0.1 µM, first compound 1 µM
  viability, T/C: 94.6%
Second compound 0.1 µM, first compound 3.16 µM
  viability, T/C: 101%
Second compound 0.1 µM, first compound 10 µM
  viability, T/C: 85.7%
Second compound 0.316 µM, first compound 0.0316 µM
  viability, T/C: 88%
Second compound 0.316 µM, first compound 0.1 µM
  viability, T/C: 94.2%
Second compound 0.316 µM, first compound 0.316 µM
  viability, T/C: 89.6%
Second compound 0.316 µM, first compound 1 µM
  viability, T/C: 93.3%
Second compound 0.316 µM, first compound 3.16 µM
  viability, T/C: 100%
Second compound 0.316 µM, first compound 10 µM
  viability, T/C: 81.8%
Second compound 1 µM, first compound 0.0316 µM
  viability, T/C: 90.7%
Second compound 1 µM, first compound 0.1 µM
  viability, T/C: 85.6%
Second compound 1 µM, first compound 0.316 µM
  viability, T/C: 80.8%
Second compound 1 µM, first compound 1 µM
  viability, T/C: 87.7%
Second compound 1 µM, first compound 3.16 µM
  viability, T/C: 85.6%
Second compound 1 µM, first compound 10 µM
  viability, T/C: 72%

## NC(=O)C(=Cn1cnc(-c2cc(C(F)(F)F)cc(C(F)(F)F)c2)n1)c1cncnc1 + CNC(C)C(=O)NC1CN(S(=O)(=O)c2cccc(S(=O)(=O)N3CCC4CCC(C(=O)NC(c5ccccc5)c5ccccc5)N4C(=O)C(NC(=O)C(C)NC)C3)c2)CCC2CCC(C(=O)NC(c3ccccc3)c3ccccc3)N2C1=O
Second compound 0.00316 µM
  IC50: > 0.3 µM
Second compound 0.01 µM
  IC50: > 0.3 µM
Second compound 0.0316 µM
  IC50: > 0.3 µM
Second compound 0.1 µM
  IC50: > 0.3 µM
Second compound 0.316 µM
  IC50: > 0.3 µM
Second compound 1 µM
  IC50: > 0.3 µM
Second compound 0.00316 µM, first compound 0.000949 µM
  viability, T/C: 84.3%
Second compound 0.00316 µM, first compound 0.003 µM
  viability, T/C: 77.2%
Second compound 0.00316 µM, first compound 0.00949 µM
  viability, T/C: 77.4%
Second compound 0.00316 µM, first compound 0.03 µM
  viability, T/C: 78.7%
Second compound 0.00316 µM, first compound 0.0949 µM
  viability, T/C: 73.2%
Second compound 0.00316 µM, first compound 0.3 µM
  viability, T/C: 64.8%
Second compound 0.01 µM, first compound 0.000949 µM
  viability, T/C: 95.8%
Second compound 0.01 µM, first compound 0.003 µM
  viability, T/C: 87.6%
Second compound 0.01 µM, first compound 0.00949 µM
  viability, T/C: 80.8%
Second compound 0.01 µM, first compound 0.03 µM
  viability, T/C: 84.9%
Second compound 0.01 µM, first compound 0.0949 µM
  viability, T/C: 85.1%
Second compound 0.01 µM, first compound 0.3 µM
  viability, T/C: 65.3%
Second compound 0.0316 µM, first compound 0.000949 µM
  viability, T/C: 82.4%
Second compound 0.0316 µM, first compound 0.003 µM
  viability, T/C: 81.2%
Second compound 0.0316 µM, first compound 0.00949 µM
  viability, T/C: 80.4%
Second compound 0.0316 µM, first compound 0.03 µM
  viability, T/C: 88.3%
Second compound 0.0316 µM, first compound 0.0949 µM
  viability, T/C: 83.9%
Second compound 0.0316 µM, first compound 0.3 µM
  viability, T/C: 66.6%
Second compound 0.1 µM, first compound 0.000949 µM
  viability, T/C: 90.7%
Second compound 0.1 µM, first compound 0.003 µM
  viability, T/C: 82.6%
Second compound 0.1 µM, first compound 0.00949 µM
  viability, T/C: 82.5%
Second compound 0.1 µM, first compound 0.03 µM
  viability, T/C: 85%
Second compound 0.1 µM, first compound 0.0949 µM
  viability, T/C: 80.5%
Second compound 0.1 µM, first compound 0.3 µM
  viability, T/C: 67.3%
Second compound 0.316 µM, first compound 0.000949 µM
  viability, T/C: 85.2%
Second compound 0.316 µM, first compound 0.003 µM
  viability, T/C: 82.4%
Second compound 0.316 µM, first compound 0.00949 µM
  viability, T/C: 82.5%
Second compound 0.316 µM, first compound 0.03 µM
  viability, T/C: 78.9%
Second compound 0.316 µM, first compound 0.0949 µM
  viability, T/C: 80.3%
Second compound 0.316 µM, first compound 0.3 µM
  viability, T/C: 64.2%
Second compound 1 µM, first compound 0.000949 µM
  viability, T/C: 78.2%
Second compound 1 µM, first compound 0.003 µM
  viability, T/C: 91.9%
Second compound 1 µM, first compound 0.00949 µM
  viability, T/C: 78.5%
Second compound 1 µM, first compound 0.03 µM
  viability, T/C: 77.4%
Second compound 1 µM, first compound 0.0949 µM
  viability, T/C: 73.3%
Second compound 1 µM, first compound 0.3 µM
  viability, T/C: 58.5%
